Experimental data: EP4585216A1, “HETEROCYCLIC COMPOUNDS FOR THE TREATMENT OF FATTY LIVER DISEASE” (ScandiEdge Therapeutics AB, priority 2024, dated 2025)
Several values for one entry are separate records, joined by “and”; a condition that tells them apart may be missing. Equal entries are not always repeated. Entries after “also recorded” stand apart in the source; their conditions may differ.

Assays:
PKL [1] = molecular target: T1, PKL (Homo sapiens, UniProt P30613); experiment: Cellular thermal shift assay (Cetsa), PKL; format: cell-based; conditions: HepG2 WT cells, 10 and 20 µM for 2 h, heat shock 60°C 5 min
T1 construct: host or cells: HepG2 wild-type cells
Procedure: (§1) HepG2 WT cells were trypsinized and transferred into 1.5ml tube at a concentration of 500,000 cells per ml. The cells were treated with 10µM and 20µM SET-62 in an 1.5 ml tube and incubated for 2 h at 37°C in an CO2 incubator. The tubes were exposed to heat shock at 60°C for 5 min with a pre-heated heat block. After centrifugation of the heated cells at 13,000 rpm for 1 min, the cells were lysed with 50 µl of Native lysis Buffer (ab156035, abeam). Centrifugation was performed again to purify soluble proteins in the lysed solution and 9 µl of each group were analysed using western blot. DMSO was used as control.

pyruvate kinase (PK) [2] = experiment: Pyruvate kinase activity in treated HepG2 WT cells; format: cell-based; conditions: 20 µM for 4 h
Procedure: (§2) HepG2 WT and HepG2 KO cells were lysed, and protein lysate was prepared with CelLytic M (C2978, Sigma-Aldrich) lysis buffer. Protein lysate was treated with 10 µM of the drugs and the pyruvate kinase activity on protein lysate was measured using Pyruvate Kinase Assay Kit (ab83432, abeam) following manufacturer's instruction. 2×10^4 HepG2 WT cells and 1×10^5 HepG2 KO cells were seeded into a 96-well plate for measuring pyruvate kinase activity in the cells. The cells were treated with 10-20µM of drugs for 4h and washed with 250µl PBS. Cells were lysed with 50 µl PK assay buffer (ab83432, abcam) and start reaction and kinetic O.D measurement was performed on 50µl PK assay buffer containing the assay component (ab83432, abcam). O.D values were measured with microplate reader (Hidex Sense Beta Plus) at 570nm wavelength. DMSO was used as control.
(§3) The effect of the target compounds was studied on liver cell line HepG2. HepG2 expresses two different pyruvate kinases (PK), pyruvate kinase muscle (PKM2) and pyruvate kinase liver (PKL). While most cells express PKM, liver cells further express PKL. […] In addition to HepG2 KO cell, HepG2 wild-type (HepG2 WT) cells were also used.

PKL [3] = experiment: Western blot of DNL steatosis model, PKL expression; format: cell-based; conditions: 5 µM
Procedure: (§4) HepG2 wild type cells were purchased from genome engineering company Synthego. Cells were maintained with growth media RPMI 1640 (R2405, Sigma-Aldrich) and supplemented with 10 % fetal bovine serum (FBS, F7524, Sigma-Aldrich), 1 % penicillin-streptomycin (P/S media, P4333, Sigma-Aldrich). Steatosis induction media was prepared as DMEM high glucose (D0819, Sigma-Aldrich) with 10% FBS, 1% P/S media supplemented with 10µg/ml insulin (I9278, Sigma-Aldrich), and 10µM T0901317 (T2320, Sigma-Aldrich) for one week. HepG2 cells were seeded 6×10^4 cells per well into a 96-well plate for TAG and MTT assay after steatosis and 1×10^6 cells per well into 6-well plate for western blot analysis after steatosis. HepG2 cells were incubated with steatosis induce media (SM) for one week by 3 day + 2 day + 2 day with total three times media exchange.
(§5) After steatosis induction with designated concentration of compounds, whole cell lysate was prepared with CelLytic M (C2978, Sigma-Aldrich) buffer. SDS PAGE was performed on Mini-PROTEAN® TGX™ Precast Gels (Bio-Rad) and transferred using Trans-Blot® Turbo™ Transfer System (Bio-Rad). […] Protein band was detected with ImageQuantTMLAS 500 (29-0050-63, GE). […]

PKM2 [4] = experiment: Western blot of DNL steatosis model, PKM2 expression; format: cell-based; conditions: 5 µM
Procedure: as §4, §5

[5] = molecular target: T2, pyruvate kinase liver (PKL) (Homo sapiens, UniProt P30613); experiment: Pyruvate kinase activity in HepG2 PKM2 CRISPR KO protein lysate; format: biochemical
T2 construct: endogenous in cells; host or cells: HepG2 PKM2 CRISPR KO (HepG2 KO) cells; lysate in CelLytic M or treated whole cells
Procedure: as §2, §3

[6] = test system: fatty acid synthase (FASN); experiment: Western blot of DNL steatosis model, FASN expression; format: cell-based; conditions: 5 µM
Procedure: as §4, §5

pyruvate kinase (PK) [7] = experiment: Pyruvate kinase activity in HepG2 WT protein lysate; format: biochemical; conditions: 10 µM
Procedure: as §2, §3

[8] = molecular target: T2, pyruvate kinase liver (PKL); experiment: Pyruvate kinase activity in treated HepG2 PKM2 CRISPR KO cells; format: cell-based; conditions: 20 µM for 4 h
Procedure: as §2, §3

PKM2 [9] = molecular target: T3, PKM2 (Homo sapiens, UniProt P14618); experiment: Cellular thermal shift assay (Cetsa), PKM2; format: cell-based; conditions: HepG2 WT cells, 10 and 20 µM for 2 h, heat shock 60°C 5 min
T3 construct: host or cells: HepG2 wild-type cells
Procedure: as §1

HepG2 cells [10] = experiment: MTT assay (cell viability) in DNL steatosis model; format: cell-based
Procedure: as §4
(§6) HepG2 cells were seeded at 6×10^4 cells per well into 96-well plate and induced steatosis for one week with designated concentration of small molecules (this will be referred to as a DNL steatosis model). After steatosis induction, cells were washed with 200 µl of PBS and triglyceride contents was measured by Triglyceride Assay Kit - Quantification (ab65336, Abeam) following manufacturer's instruction. Optical density (O.D) values were detected with microplate reader at 570 nm (Hidex Sense Beta Plus).
(§7) 5 mg/ml MTT (M2128, Sigma-Aldrich) solution in PBS (10 µL) was added to each well for MTT assay. After 1 hr, MTT solution and all media were removed from the wells. 100 µl of DMSO was added and mixed to dissolve the formazan crystals. Cell viability was analysed by measuring the absorbance of the dissolved formazan in a microplate reader at a wavelength of 570 nm with microplate reader (Hidex Sense Beta Plus). DMSO was used as control.

HepG2 cells [11] = experiment: TAG measurement in DNL steatosis model; format: cell-based
Procedure: as §4, §6, §7

T2 sequence (P30613 1-543 isoform P30613-2): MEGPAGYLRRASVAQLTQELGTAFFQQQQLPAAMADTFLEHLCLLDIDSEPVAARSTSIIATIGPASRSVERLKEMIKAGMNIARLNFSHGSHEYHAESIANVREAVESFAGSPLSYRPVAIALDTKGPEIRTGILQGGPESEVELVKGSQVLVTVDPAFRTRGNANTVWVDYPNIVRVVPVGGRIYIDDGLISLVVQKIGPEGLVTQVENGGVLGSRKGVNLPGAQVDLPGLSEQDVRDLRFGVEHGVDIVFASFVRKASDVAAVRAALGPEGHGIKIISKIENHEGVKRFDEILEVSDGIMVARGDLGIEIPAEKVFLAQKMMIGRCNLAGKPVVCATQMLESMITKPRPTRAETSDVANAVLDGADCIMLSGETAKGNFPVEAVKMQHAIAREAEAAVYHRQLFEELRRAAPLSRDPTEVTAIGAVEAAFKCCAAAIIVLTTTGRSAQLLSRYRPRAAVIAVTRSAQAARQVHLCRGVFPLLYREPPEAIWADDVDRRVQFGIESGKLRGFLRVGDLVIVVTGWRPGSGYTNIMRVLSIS
T3 sequence (P14618 2-531 limits assumed): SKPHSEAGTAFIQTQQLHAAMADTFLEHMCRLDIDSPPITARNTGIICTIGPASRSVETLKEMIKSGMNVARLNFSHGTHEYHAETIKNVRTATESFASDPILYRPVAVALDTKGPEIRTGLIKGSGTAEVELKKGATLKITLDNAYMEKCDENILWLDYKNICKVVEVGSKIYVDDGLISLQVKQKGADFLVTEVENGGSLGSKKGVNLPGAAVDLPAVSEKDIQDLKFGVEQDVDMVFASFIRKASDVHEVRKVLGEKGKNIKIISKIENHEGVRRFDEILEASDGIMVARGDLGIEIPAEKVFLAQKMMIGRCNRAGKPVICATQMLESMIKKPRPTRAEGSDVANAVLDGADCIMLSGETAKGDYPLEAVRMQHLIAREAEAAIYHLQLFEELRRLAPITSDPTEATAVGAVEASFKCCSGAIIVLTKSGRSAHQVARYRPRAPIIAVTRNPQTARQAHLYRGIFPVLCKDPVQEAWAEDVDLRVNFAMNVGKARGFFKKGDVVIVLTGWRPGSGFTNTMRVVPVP
T1 sequence (P30613 1-543 isoform P30613-2): as the sequence (P30613 1-543 isoform P30613-2) above

With O=S1(=O)c2cc(O)c(O)cc2-c2ccc(C(F)(F)F)cc2N1Cc1ccccc1 [SET-62, 6-benzyl-2,'3-dihydroxy-8-(trifluoromethyl)-6H-dibenzo[c,e][1,2]thiazine 5,5-dioxide] the “decrease of the solubility of PKL” value (PKL [1]) was ~ 38%, the “effect on PK activity in HepG2 WT cells (in words)” value (pyruvate kinase (PK) [2]) was “slightly increased the PK activity” and the “increase in PK activity of HepG2 WT cells” value (pyruvate kinase (PK) [2]) was 6% and 9.0%. The “PKL protein expression level” value (PKL [3]) was “decreased”, the “expression of PKM2” value (PKM2 [4]) was “slight increase” and the “PK activity of HepG2 KO protein lysate (in words)” value ([5]; 10 µM, batches 4 and 5) was “highest inhibitory effect”. The inhibition at 10 µM ([5]; compared to the control (DMSO), read-out: reduction in PK activity of HepG2 KO protein lysate) was 57%, the “FASN protein expression level” value [6] was “decreased” and the “PK activity of HepG2 WT protein lysate (in words)” value (pyruvate kinase (PK) [7]; batches 4 and 5) was “highest inhibitory effect”. For the same compound, the “reduction in PK activity of HepG2 WT protein lysate” value (pyruvate kinase (PK) [7]; compared to the control (DMSO)) was 59.9%, the “decrease in PK activity of HepG2 KO cells” value [8] was 32.8% and 24.4% and the “effect on PK activity in HepG2 KO cells (in words)” value [8] was “decreased the PK activity”. For the same compound, the “increase of the solubility of PKM2” value (PKM2 [9]) was 12-18%, the “cell viability (in words)” value (HepG2 cells [10]; 5 µM for 1 week (batch 4)) was “increased the cell viability” and the “cell viability (MTT assay, in words)” value (HepG2 cells [10]; 10 µM for 1 week) was “decreased cell viability; also recorded: strong toxicity”. For the same compound, the “cell viability / toxicity (in words)” value (HepG2 cells [10]; lower doses (5 µM, 2.5 µM, 1.25 µM, 0.625 µM), one week) was “did not exhibit any toxicity”, the “TAG/MTT reduced to” value (HepG2 cells [11]; 0.625 µM for one week) was 15.0% and the “TAG/MTT ratio reduced to” value (HepG2 cells [11]; 5 µM for one week) was 49.4% and 61.3%. The “TAG content (in words)” value (HepG2 cells [11]; 10 µM for 1 week) was “reduced TAG content” and the TAG/MTT ratio (HepG2 cells [11]; 10 µM for 1 week) was 92.9%.
